One data set has as its target T1, CYP2C19 (Homo sapiens, UniProt P33261).
T1 construct: using mixed human liver microsomes and human primary hepatocytes as the in vitro; from tissue; host or cells: mixed (pooled) human liver microsomes
It counts as in vitro ADME. The settings on record: microsomes.

In a further data set the target is T2, CYP2C8 (Homo sapiens, UniProt P10632).
T2 construct: using mixed human liver microsomes and human primary hepatocytes as the in vitro; from tissue; host or cells: mixed (pooled) human liver microsomes
T2 sequence (P10632 whole entry): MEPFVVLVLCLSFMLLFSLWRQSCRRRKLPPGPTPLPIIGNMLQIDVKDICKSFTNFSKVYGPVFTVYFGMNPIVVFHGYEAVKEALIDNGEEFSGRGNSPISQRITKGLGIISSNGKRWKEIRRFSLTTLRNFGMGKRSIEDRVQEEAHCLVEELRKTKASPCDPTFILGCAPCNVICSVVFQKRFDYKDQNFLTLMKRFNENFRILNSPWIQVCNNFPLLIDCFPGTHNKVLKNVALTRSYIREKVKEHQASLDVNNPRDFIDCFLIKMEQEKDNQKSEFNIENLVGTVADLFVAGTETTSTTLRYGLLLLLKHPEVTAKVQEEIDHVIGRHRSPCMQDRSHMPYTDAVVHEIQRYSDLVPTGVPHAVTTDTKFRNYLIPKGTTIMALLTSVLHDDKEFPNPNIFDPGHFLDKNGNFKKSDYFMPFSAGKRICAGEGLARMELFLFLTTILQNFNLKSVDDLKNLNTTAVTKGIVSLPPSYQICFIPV
It counts as in vitro ADME. Particulars: microsomes.

In another data set the target is T3, CYP2D6 (Homo sapiens, UniProt P10635).
T3 construct: using mixed human liver microsomes and human primary hepatocytes as the in vitro; from tissue; host or cells: mixed (pooled) human liver microsomes
T3 sequence (P10635 whole entry): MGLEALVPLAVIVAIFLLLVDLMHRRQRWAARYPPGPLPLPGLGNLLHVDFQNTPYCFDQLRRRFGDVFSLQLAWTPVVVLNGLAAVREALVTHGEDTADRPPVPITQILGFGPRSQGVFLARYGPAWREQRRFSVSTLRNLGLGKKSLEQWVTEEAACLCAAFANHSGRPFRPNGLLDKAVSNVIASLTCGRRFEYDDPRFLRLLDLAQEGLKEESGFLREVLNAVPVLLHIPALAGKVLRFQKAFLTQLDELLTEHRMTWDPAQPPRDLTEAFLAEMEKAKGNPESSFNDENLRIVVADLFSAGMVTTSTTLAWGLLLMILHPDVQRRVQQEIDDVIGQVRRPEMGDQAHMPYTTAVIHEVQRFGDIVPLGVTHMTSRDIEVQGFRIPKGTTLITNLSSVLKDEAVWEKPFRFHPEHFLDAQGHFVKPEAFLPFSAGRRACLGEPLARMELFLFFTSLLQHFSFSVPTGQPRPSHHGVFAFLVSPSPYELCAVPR
It counts as in vitro ADME. The settings on record: microsomes.

The next data set deals with T4, CYP2B6 (Homo sapiens, UniProt P20813).
T4 construct: using mixed human liver microsomes and human primary hepatocytes as the in vitro; from tissue; host or cells: mixed (pooled) human liver microsomes
T4 sequence (P20813 whole entry): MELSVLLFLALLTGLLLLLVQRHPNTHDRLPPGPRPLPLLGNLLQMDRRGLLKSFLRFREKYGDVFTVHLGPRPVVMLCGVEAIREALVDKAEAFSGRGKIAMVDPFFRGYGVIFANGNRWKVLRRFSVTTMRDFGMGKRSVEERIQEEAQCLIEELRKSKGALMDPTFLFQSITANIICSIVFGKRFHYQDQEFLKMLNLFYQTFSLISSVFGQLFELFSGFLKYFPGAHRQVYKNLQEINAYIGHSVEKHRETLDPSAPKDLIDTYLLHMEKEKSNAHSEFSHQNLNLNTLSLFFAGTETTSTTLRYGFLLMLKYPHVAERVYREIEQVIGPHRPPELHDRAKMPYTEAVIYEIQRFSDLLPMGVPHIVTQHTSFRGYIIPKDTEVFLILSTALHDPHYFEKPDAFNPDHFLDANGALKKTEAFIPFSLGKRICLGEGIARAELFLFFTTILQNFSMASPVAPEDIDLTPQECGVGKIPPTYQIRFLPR
It counts as in vitro ADME. The settings on record: microsomes.

The subject of data set [1] is primary cells harboring the JAK2V617F mutation in patients with polycythemia vera. Nature of the data set: Colony forming of erythroid hematopoietic cells of polycythemia vera patients. The settings on record: 9 patients. It is filed as cell-based, human. The source says:
(§1) Suzhou Zelgen Biopharmaceuticals Co., Ltd. Jaktinib Hydrochloride Tablets Chemical Drug Class 1 New Drug and ZG0178. However, the inhibitory effect on the activity of Ba/F3-EpoR cell line […]
(§2) respectively. Obviously, this selective inhibition is associated with the aberrant expression of JAK2 in Ba/F3-EpoR-JAK2V617F mutant cells, and the degree of ZG0163 inhibition on JAK-STAT signaling pathway in this cell line. […]
(§3) cells, and the effects of ZG0163 was similar to those of positive control compounds, […]
(§4) In Vitro Inhibitory Effect of ZG0128 on Cell Lines Transfected with Oncogenes and Primary Blood Cells in Patients with Polycythemia Vera
(§5) In vitro cell culture assay was used to determine whether compound ZG0128 […]
(§6) cell line harboring a JAK2V617F mutation, and 8 HCD-57 cell lines stably transfected with oncogenic mutations JAK2V617F, MPLW515L, KITD816V, NPM-ALK, FLT3-ITD, FLT3D835H, FLT3D835Y and KRasG12V, respectively. In addition, study the inhibitory effects of compound ZG0128 on the growth of hematopoietic progenitor cells in patients with polycythemia vera.
(§7) 9 cell lines were similar to those of positive control drug ZG0192. At the sub-micromolar concentration, both compounds ZG0128 and ZG0192 were able to […]
(§8) the growth of HCD-57 cells transfected with oncogenic mutations JAK2V617F, […]
(§9) spectrum inhibitory effect on tyrosine kinases. […]

Another data set has as its target T5, CYP1A2 (Homo sapiens, UniProt P05177).
T5 construct: using mixed human liver microsomes and human primary hepatocytes as the in vitro; from tissue; host or cells: mixed (pooled) human liver microsomes
It is filed as in vitro ADME. Particulars: microsomes.

The target of a further data set is T6, CYP2C9 (Homo sapiens, UniProt P11712).
T6 construct: using mixed human liver microsomes and human primary hepatocytes as the in vitro; from tissue; host or cells: mixed (pooled) human liver microsomes
T6 sequence (P11712 whole entry): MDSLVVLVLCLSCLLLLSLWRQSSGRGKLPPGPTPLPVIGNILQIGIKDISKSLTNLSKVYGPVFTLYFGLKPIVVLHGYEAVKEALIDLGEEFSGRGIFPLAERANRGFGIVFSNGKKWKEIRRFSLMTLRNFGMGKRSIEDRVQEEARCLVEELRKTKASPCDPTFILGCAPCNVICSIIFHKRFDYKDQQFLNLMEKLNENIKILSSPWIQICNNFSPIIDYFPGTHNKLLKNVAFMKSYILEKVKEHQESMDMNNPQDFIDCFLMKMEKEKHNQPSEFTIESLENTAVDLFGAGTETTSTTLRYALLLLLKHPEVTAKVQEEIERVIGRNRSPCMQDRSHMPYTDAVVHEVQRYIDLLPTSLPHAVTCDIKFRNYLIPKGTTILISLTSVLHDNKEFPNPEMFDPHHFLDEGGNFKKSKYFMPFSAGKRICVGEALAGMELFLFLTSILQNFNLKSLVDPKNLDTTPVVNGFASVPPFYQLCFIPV
It is filed as in vitro ADME. Particulars: microsomes.

The target of a further data set is T7, CYP3A4 (Homo sapiens, UniProt P08684).
T7 construct: using mixed human liver microsomes and human primary hepatocytes as the in vitro; from tissue; host or cells: mixed (pooled) human liver microsomes
T7 sequence (P08684 whole entry): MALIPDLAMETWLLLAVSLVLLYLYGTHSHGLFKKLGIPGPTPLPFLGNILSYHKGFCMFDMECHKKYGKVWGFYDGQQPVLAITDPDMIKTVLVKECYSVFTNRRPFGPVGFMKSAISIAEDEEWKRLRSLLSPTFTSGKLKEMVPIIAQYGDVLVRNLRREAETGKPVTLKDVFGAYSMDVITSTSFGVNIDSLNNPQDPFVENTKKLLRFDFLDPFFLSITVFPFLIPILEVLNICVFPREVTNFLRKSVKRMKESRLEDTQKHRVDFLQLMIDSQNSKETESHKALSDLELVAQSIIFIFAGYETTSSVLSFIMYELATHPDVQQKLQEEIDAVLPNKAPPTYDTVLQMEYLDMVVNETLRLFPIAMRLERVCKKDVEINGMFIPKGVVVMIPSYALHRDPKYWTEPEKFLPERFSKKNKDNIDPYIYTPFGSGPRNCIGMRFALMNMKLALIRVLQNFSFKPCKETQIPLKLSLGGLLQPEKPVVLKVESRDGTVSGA
Nature of the data set: CYP inhibition, mixed human liver microsomes. It counts as in vitro ADME. (Liver microsomes are vesicles of endoplasmic reticulum, rich in cytochrome P450 enzymes.)

The subject of data set [2] is J53Z1 cells harboring the JAK2V617F mutation and HCD-57 cells transfected with oncogenic mutations. Nature of the data set: Growth of cell lines transfected with oncogenes. It counts as cell-based.
Description: as §1, §2, §3, §4, §5, §6, §7, §8, §9

Each structure is given as a SMILES string. Counter-ions that a name gives are not always drawn. Like-named read-outs stand apart in the source and are kept apart here.

In general, IC50 refers to the midpoint of a concentration-inhibition curve.

T5 sequence (P05177 whole entry): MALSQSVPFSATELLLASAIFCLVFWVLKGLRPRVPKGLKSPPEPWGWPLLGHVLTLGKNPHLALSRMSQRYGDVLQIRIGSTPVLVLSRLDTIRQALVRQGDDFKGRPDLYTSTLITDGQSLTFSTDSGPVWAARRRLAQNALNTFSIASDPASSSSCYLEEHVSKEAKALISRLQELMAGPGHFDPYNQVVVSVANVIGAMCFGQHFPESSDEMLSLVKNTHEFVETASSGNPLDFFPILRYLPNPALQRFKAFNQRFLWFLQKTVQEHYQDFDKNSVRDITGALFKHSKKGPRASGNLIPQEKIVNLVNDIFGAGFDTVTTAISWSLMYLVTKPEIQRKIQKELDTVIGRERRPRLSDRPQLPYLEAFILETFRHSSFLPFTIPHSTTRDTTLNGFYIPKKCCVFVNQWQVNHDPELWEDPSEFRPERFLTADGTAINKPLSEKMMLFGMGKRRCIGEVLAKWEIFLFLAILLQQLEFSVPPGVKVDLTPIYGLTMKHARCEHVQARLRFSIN
T1 sequence (P33261 whole entry): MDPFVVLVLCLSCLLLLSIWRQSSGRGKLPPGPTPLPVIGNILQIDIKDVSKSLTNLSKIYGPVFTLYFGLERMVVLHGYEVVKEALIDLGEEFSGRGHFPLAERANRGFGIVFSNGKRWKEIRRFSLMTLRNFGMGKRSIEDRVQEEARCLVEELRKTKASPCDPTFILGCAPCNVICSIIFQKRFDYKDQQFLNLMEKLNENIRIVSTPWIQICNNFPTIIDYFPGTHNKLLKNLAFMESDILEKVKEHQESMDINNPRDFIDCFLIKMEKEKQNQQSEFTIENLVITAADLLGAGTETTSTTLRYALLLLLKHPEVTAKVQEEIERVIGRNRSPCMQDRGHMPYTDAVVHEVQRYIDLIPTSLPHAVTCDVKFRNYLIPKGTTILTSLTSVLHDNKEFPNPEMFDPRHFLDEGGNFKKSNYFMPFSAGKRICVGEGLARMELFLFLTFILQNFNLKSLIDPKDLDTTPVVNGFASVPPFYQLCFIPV

Take `N#CCNC(=O)c1ccc(-c2ccnc(Nc3ccc(N4CCOCC4)cc3)n2)cc1` [ZG0128, Jaktinib Dihydrochloride Monohydrate]: the IC50 on CYP2C19 is more than 100 µM; against CYP2C8, more than 100 µM; at CYP2D6, more than 100 µM; against CYP2B6, more than 100 µM; in data set [1] it was 0.18 µM; at CYP1A2, more than 100 µM. Besides, the concentration for half-maximal inhibition (IC50) is more than 100 µM against CYP2C9; more than 100 µM against CYP3A4 (microsomes); more than 100 µM at CYP3A4 (midazolam 1'-hydroxylation, read-out: IC50); 0.31 to 0.71 µM in data set [2] (J53Z1 and HCD-57 with JAK2V617F, MPLW515L, KITD816V, FLT3-ITD, FLT3D835H, FLT3D835Y, read-out: IC50, growth inhibition, range over cell lines); 0.61 µM in [2] (transfected JAK2V617F cell lines, read-out: IC50).

(Values after publication PMC7849180 (Frontiers in Pharmacology, 2020).)
